{"source": "patent US10596169B2", "about": "“Cancer treatment with combination of plinabulin and taxane” (BeyondSpring Inc., priority 2013, dated 2020)", "key": {"[1]": {"assay": "Example 2: animal weight and drug toxicity in MV522 xenograft mice", "format": "in vivo, athymic nu/nu mice", "protocol": "Female nude mice (Hsd: Athymic Nude-Foxn1^nu) between 5 and 6 weeks of age weighing approximately 20 grams were obtained from Harlan, Inc. (Madison, Wis.). Animals were injected subcutaneously (SC) with approximately 1×10^7 MV522 cells harvested from tissue culture (1:1 matrigel:media). When tumors grew to approximately 100 cubic millimeters (mm^3) in size, animals were pair-matched by tumor size into treatment and control groups. Animals were ear-tagged and followed individually throughout the experiment.\nInitial doses were administered on Day 1 following pair-matching. The experiment was carried out as both a tumor growth inhibition (TGI) and tumor growth delay (TGD) study. For TGI, the endpoint was when the average tumor volume of Group 1 reached 1.2 cm^3. For TGD, the endpoint was reached when each individual animal's tumor volume reached 1.0 cm^3. A 10 mg/ml stock vial of docetaxel was diluted in 0.9% saline on each day of dosing and administered intravenously (IV).\nIndividual and group mean weights ±SD and percent weight change were recorded twice weekly until study completion beginning Day 1. Group weights through Day 24 or 53 and weight nadir values are reported."}, "[2]": {"system": "stage IIIb/IV non-small cell lung cancer", "assay": "Example 3: clinical study, efficacy (overall survival, response rate), Arm DN vs Arm D", "format": "in vivo, human (NSCLC patients)", "details": "for OS / Response Rate: Arm DN (30 mg/m^2) vs Arm D", "protocol": "The investor applied the optimum plinabulin and docetaxel combination treatment schedule derived from MV522 animal studies in NSCLC patients. Patients received therapy on Day 1 and Day 8 in 3-week cycles. Therapy on Day 1 consisted of 75 mg/m^2 docetaxel administered via intravenous infusion (IV) over 1 hour, followed 2 hours later (from the time the docetaxel infusion begins) by 30 mg/m^2 plinabulin administered via intravenous infusion (IV) over 30 minutes. Therapy on Day 8 consisted of 20 mg/m^2 or 30 mg/m^2 plinabulin administered via intravenous infusion (IV) over 30 minutes.\nTo compare the overall survival of patients with NSCLC treated with docetaxel to patients treated with docetaxel+plinabulin.\nSecondary: • 1. To compare the response rate, duration of response, 6-month survival, and progression free survival in patients with NSCLC treated with docetaxel to patients with docetaxel+plinabulin; • 2. To compare the safety and adverse events profile of docetaxel to docetaxel+plinabulin.\nThis was an open-label study in patients with advanced NSCLC that had progressed after treatment with at least 1 chemotherapy regimen. Patients were randomized to receive either docetaxel plus plinabulin (DN) or docetaxel alone (75 mg/m^2) (D). 2 dosing cohorts were investigated: • 1) 30 mg/m^2 dosing cohort: Approximately 110 patients were to be randomized (1:1) to receive either docetaxel plus plinabulin at 30 mg/m^2 (DN 30 mg/m^2 arm) or docetaxel alone (D arm); • 2) 20 mg/m^2 dosing cohort: Approximately 57 patients were to be randomized (2:1) to receive either docetaxel plus plinabulin at 20 mg/m^2 (DN 20 mg/m^2 arm) or docetaxel (D arm) alone.\nPatients received therapy on Day 1 and Day 8 in 3-week cycles.\nTherapy on Day 1 consisted of 75 mg/m^2 docetaxel administered via intravenous infusion (IV) over 1 hour, followed 2 hours later (from the time the docetaxel infusion began) by placebo (Arm D) or 30 mg/m^2 or 20 mg/m^2 plinabulin (Arm DN) DN administered via intravenous infusion (IV) over 30 minutes. Oral dexamethasone (16 mg) was given the day prior to, the day of and the day following docetaxel infusion (Day 1). Therapy on Day 8 consisted of placebo (Arm D) or 30 mg/m^2 or 20 mg/m^2 plinabulin (Arm DN) administered via intravenous infusion (IV) over 30 minutes.\nPatients with stage IIIb/IV non-small cell lung cancer that has progressed after treatment with at least one chemotherapy regimen.\nAssessment of response to treatment occurred during the rest period of the second cycle (and approximately every 2 cycles thereafter).\nComparisons were made of efficacy endpoints between Arm D and Arm DN. The primary efficacy endpoint is overall survival. Secondary endpoints include response rate, duration of response, quality of life, neutropenia rate and G-CSF usage.\nThe distributions of overall survival and any other time-to-event endpoints were summarized using the Kaplan-Meier method. The log-rank test was used to compare the efficacy endpoints between treatment groups. All statistical tests were carried out using one-sided tests at the 5% level of significance. The primary objective of this trial is to assess the effect of the addition of plinabulin on overall survival."}, "[3]": {"details": "G2: docetaxel 15 mg/kg IV + NPI-2358 vehicle 1 h after"}, "[4]": {"details": "G3: docetaxel 15 mg/kg IV + NPI-2358 vehicle 4 h after"}, "[5]": {"details": "G4: docetaxel 15 mg/kg IV + NPI-2358 vehicle 24 h after"}, "[6]": {"details": "G11: docetaxel 25 mg/kg IV + NPI-2358 vehicle 1 h after"}, "[7]": {"details": "G12: docetaxel 25 mg/kg IV + NPI-2358 vehicle 4 h after"}, "[8]": {"details": "G13: docetaxel 25 mg/kg IV + NPI-2358 vehicle 24 h after"}}}
{"smiles": "CC(=O)O[C@@]12CO[C@@H]1C[C@H](O)[C@@]1(C)C(=O)[C@H](O)C3=C(C)[C@@H](OC(=O)[C@H](O)[C@@H](NC(=O)OC(C)(C)C)c4ccccc4)C[C@@](O)([C@@H](OC(=O)c4ccccc4)[C@H]21)C3(C)C", "note": "[Docetaxel, docetaxel]", "values": [{"measurement": "Final weight - Day 24 % change", "setting": "[1]; [3]", "value": "+13%"}, {"measurement": "Final weight - Day 24 AVG +/− SD", "setting": "[1]; [3]", "value": "22 ± 1", "unit": "g"}, {"measurement": "Weight nadir % change", "setting": "[1]; [3]", "value": "−14", "unit": "%"}, {"measurement": "Weight nadir day", "setting": "[1]; [3]", "value": 10}, {"measurement": "Final weight - Day 24 % change", "setting": "[1]; [4]", "value": "+12%"}, {"measurement": "Final weight - Day 24 AVG +/− SD", "setting": "[1]; [4]", "value": "23 ± 2", "unit": "g"}, {"measurement": "Weight nadir % change", "setting": "[1]; [4]", "value": "−10", "unit": "%"}, {"measurement": "Weight nadir day", "setting": "[1]; [4]", "value": 10}, {"measurement": "Final weight - Day 24 % change", "setting": "[1]; [5]", "value": "+17%"}, {"measurement": "Final weight - Day 24 AVG +/− SD", "setting": "[1]; [5]", "value": "23 ± 2", "unit": "g"}, {"measurement": "Weight nadir % change", "setting": "[1]; [5]", "value": "−10", "unit": "%"}, {"measurement": "Weight nadir day", "setting": "[1]; [5]", "value": 10}, {"measurement": "Final weight - Day 24 % change", "setting": "[1]; [6]", "value": "−10", "unit": "%"}, {"measurement": "Final weight - Day 24 AVG +/− SD", "setting": "[1]; [6]", "value": "18 ± 2", "unit": "g"}, {"measurement": "Weight nadir % change", "setting": "[1]; [6]", "value": "−13", "unit": "%"}, {"measurement": "Weight nadir day", "setting": "[1]; [6]", "value": 17}, {"measurement": "Final weight - Day 24 % change", "setting": "[1]; [7]", "value": "−11", "unit": "%"}, {"measurement": "Final weight - Day 24 AVG +/− SD", "setting": "[1]; [7]", "value": "17 ± 2", "unit": "g"}, {"measurement": "Weight nadir % change", "setting": "[1]; [7]", "value": "−14", "unit": "%"}, {"measurement": "Weight nadir day", "setting": "[1]; [7]", "value": 10}, {"measurement": "Final weight - Day 24 % change", "setting": "[1]; [8]", "value": "−12", "unit": "%"}, {"measurement": "Final weight - Day 24 AVG +/− SD", "setting": "[1]; [8]", "value": "17 ± 3", "unit": "g"}, {"measurement": "Weight nadir % change", "setting": "[1]; [8]", "value": "−20", "unit": "%"}, {"measurement": "Weight nadir day", "setting": "[1]; [8]", "value": 17}, {"measurement": "Overall survival (OS)", "setting": "[2]; 30 mg/m^2 group, all patients, docetaxel 75 mg/m^2", "value": 7.5, "unit": "M"}, {"measurement": "OS", "setting": "[2]; All Patients", "value": 7.5, "unit": "month"}, {"measurement": "Response Rate", "setting": "[2]; All Patients", "value": 14.5, "unit": "%"}, {"measurement": "OS", "setting": "[2]; largest primary tumor >3 cm", "value": 7.5, "unit": "month"}, {"measurement": "Response Rate", "setting": "[2]; largest primary tumor >3 cm", "value": 13.9, "unit": "%"}, {"measurement": "OS", "setting": "[2]; largest primary tumor >5 cm", "value": 6.7, "unit": "month"}, {"measurement": "Response Rate", "setting": "[2]; largest primary tumor >5 cm", "value": 15, "unit": "%"}, {"measurement": "OS", "setting": "[2]; largest primary tumor >7 cm", "value": 5.03, "unit": "month"}, {"measurement": "Response Rate", "setting": "[2]; largest primary tumor >7 cm", "value": 20, "unit": "%"}, {"measurement": "OS", "setting": "[2]; largest primary tumor ≤3 cm", "value": 6.5, "unit": "month"}, {"measurement": "Response Rate", "setting": "[2]; largest primary tumor ≤3 cm", "value": 15.8, "unit": "%"}, {"measurement": "Overall survival (OS)", "setting": "[2]; subgroup all tumor <3 cm, plinabulin 30 mg/m^2", "value": 6.47, "unit": "M"}, {"measurement": "Overall survival (OS)", "setting": "[2]; subgroup at least one tumor with diameter greater than 3 cm, plinabulin 30 mg/m^2", "value": 7.8, "unit": "M"}]}
